Measurements reported in patent US20130210034A1, “COMPLEX PHOSPHOPROTEIN ACTIVATION PROFILES” (BECKMAN COULTER, INC., priority 2005, published 2013).

What was measured:
[1] = tested on: pERK; experiment: Phosphoprotein kinetic profiles in bone marrow samples from healthy donors; format: cell-based, human; conditions: 100 μM U0126 pre-incubation; healthy donor CD34^+, CD117^+ cells
Description: (§1) Phosphoprotein kinetic profiles were analyzed in bone marrow aspiration samples from nine healthy, adult donors (i.e., normal bone marrow or NBM) and from five AML patients. Samples from healthy donors included 5 males and 4 females, ranging in age from 26 to 49 years. Approximately 10 to 20 mL of bone marrow (BM) samples were collected from the posterior iliac crest of the volunteers using IRB approved protocols. The BM samples were filtered using a 40 μm Nylon cell strainer to remove marrow particles and the white blood cell concentration determined using a blood analyzer. […] The samples were immediately used for subsequent experimentation.
(§2) To assess the signal transduction response after growth factor simulation, 100 to 200 μL of processed samples including about 2×10^6 WBC/100 μL were added to tubes and incubated at 37° C. for 30 minutes. For inhibition experiments, cells were incubated with 100 μM U0126, 1 μg/mL rapamycin, or both for at least 20 minutes prior to cytokine addition and in all cases for 30 min prior to formaldehyde addition. […] After stimulation the cells were immediately fixed by the addition of formaldehyde to a final concentration of 4% v/v and incubated for 10 minutes at room temperature. Following fixation, red blood cells were lysed by the addition of TRITON-X/PBS solution (0.1% v/v final concentration Triton X-100) supplemented with a 1 x phosphatase inhibitor cocktail (PIC; final concentrations: 0.2 mM sodium orthovanadate, 2 mM sodium pyrophosphate decahydrate, 2 mM [3-glycerophosphate, and 10 mM sodium fluoride) and incubation at 37° C. for 20 minutes. The incubated solution was chilled by the addition of ice-cold Wash Buffer (final concentration 1×PBS and either 4% bovine serum albumin (BSA) or 4% heat-inactivated fetal bovine serum (FBS), supplemented with 1×PIC), and the samples were centrifuged at 300 g for 6 minutes at 4° C.). If the lysis was incomplete, samples were retreated with 0.1% Triton X-100 at 37° C. for 10 to 20 minutes. After removal of the supernatant, cells were washed twice in ice-cold Wash Buffer supplemented with 1×PIC and permeabilized by the addition of pre-chilled 80% methanol while simultaneously vortexing the tube and incubated on ice for 10 minutes. Methanol was removed by centrifugation, the pellet was washed with ice-cold 1×PBS, and non-specific binding was blocked by the addition of ice-cold Wash Buffer supplemented with 1×PIC and incubation at 4° C. for a minimum of 30 minutes.
(§3) To stain cells with fluorescent conjugated monoclonal antibodies, the incubated solution was centrifuged to remove the supernatant and the pellet was incubated for 60 minutes at 4° C. with an antibody staining solution including 0.25 μg to 0.50 μg of pS6-Pacific Blue, pERK-ALEXA 488, pSTAT5-ALEXA 647, CD34-PE, CD45-PerCP, and CD117-PC7. Samples were washed three times with ice-cold Wash Buffer supplemented with 1×PIC, resuspended in 0.5 mL ice-cold Wash Buffer supplemented with 1×PIC including 0.5 μg/mL DAPI, and analyzed by flow cytometryusing a BD LSR II Flow Cytometer, equipped with a High Throughput Sampler (HTS).
(§4) First, doublets, aggregates, and debris were excluded by gating on single cell events in the SSC-Area versus SSC-Height histogram. Then, in events passing through this gate, debris near the origin of the FSC-Area versus SSC-Area plot (gray in FIG. 4A) was excluded by drawing a gate around an area encompassing, primarily, lymphocytes, monocytes, and granulocytes (LMG, black in FIG. 4A). Next, in cells passing through the LMG gate, the blast region (circle in FIG. 4B) was identified in the CD45 versus SSC-Area histogram (FIG. 4B). From this blast population, CD34+, CD117+ cells were identified in the CD34 versus CD117 plot (boxed area in FIG. 4C).

[2] = tested on: pS6; experiment: as above; format: cell-based, human; conditions: at 4 min; 100 μM U0126
Description: as §1, §2, §3, §4

N#CC(=C(/N)Sc1ccccc1N)/C(C#N)=C(\N)Sc1ccccc1N [U0126, reference compound]
Inhibition of SCF-stimulated ERK phosphorylation [1]: completely inhibited
Inhibition of SCF-stimulated S6 phosphorylation [2]: partially blocked
